Experiments:
[1] = Intrinsic dissolution rate of compound III; format: physicochemical; conditions: physiologically relevant pH range above pH 4
[2] = tested on: patients with schizophrenia on stable antipsychotic treatment; test: Multinational, randomised, double-blind, placebo-controlled, parallel group clinical trial of compound III, 12 weeks of treatment; format: in vivo, human
Procedure: Regarding reducing the exacerbations of symptoms characterizing relapse, including suicidality, the clinical trial disclosed below was designed to show the efficacy of compound III in improvement of cognitive impairment in patients with schizophrenia as compared to placebo. All patients were on stable antipsychotic treatment (see Table 8 in FIGS. 6A-6C). The study was a multinational, multicentre, randomised, double-blind, placebo-controlled, parallel group trial.
Compound III (10, 25 and 50 mg) and matching placebo were supplied as film-coated tablets (formulation 1).
In total, 516 patients with schizophrenia on stable antipsychotic treatment (Table 8 in FIGS. 6A-6C) as described below were randomized into this trial. […]
The primary safety endpoints are as follows: • Occurrence of adverse events (AEs)/serious adverse events (including the abnormalities of physical examination, vital signs, electrocardiogram test and laboratory tests) • Occurrence of protocol-specified adverse events of special interest • Dramatic worsening of disease state as assessed by PANSS • Suicidality as assessed by Columbia Suicidal Severity Rating Scale (C-SSRS) […]

[3] = patients with schizophrenia receiving antipsychotic therapy

intrinsic dissolution rate [1]: low
Structure (SMILES): O=c1[nH]c(Cc2ccccn2)nc2c1cnn2C1CCOCC1 [compound III]
psychiatric serious adverse events (SAEs): hospitalization for disease worsening (schizophrenia, psychotic disorder) and suicidality leading to hospitalization ([2]; any arm dosed with compound III (10, 25, 50, 100 mg qd), 12 weeks, treated set, 8/8 (100%) of these SAEs in placebo arm): none
change in intensity and occurrence of suicidal ideation compared to placebo [2, 3]: decrease
change in psychiatric serious adverse events (hospitalization for serious worsening of schizophrenia symptoms) compared to placebo [2, 3]: statistically significant, clinically meaningful decrease
